Values belong to the compound of their own block, whether it stands above or below them.
Tests used:
[1] = molecular target: T1, Corticotropin-releasing factor receptor 1 (Mus musculus, UniProt P35347); test: In vitro effective concentration for mouse corticotropin releasing factor 1 receptor
T1 sequence (P35347 whole entry): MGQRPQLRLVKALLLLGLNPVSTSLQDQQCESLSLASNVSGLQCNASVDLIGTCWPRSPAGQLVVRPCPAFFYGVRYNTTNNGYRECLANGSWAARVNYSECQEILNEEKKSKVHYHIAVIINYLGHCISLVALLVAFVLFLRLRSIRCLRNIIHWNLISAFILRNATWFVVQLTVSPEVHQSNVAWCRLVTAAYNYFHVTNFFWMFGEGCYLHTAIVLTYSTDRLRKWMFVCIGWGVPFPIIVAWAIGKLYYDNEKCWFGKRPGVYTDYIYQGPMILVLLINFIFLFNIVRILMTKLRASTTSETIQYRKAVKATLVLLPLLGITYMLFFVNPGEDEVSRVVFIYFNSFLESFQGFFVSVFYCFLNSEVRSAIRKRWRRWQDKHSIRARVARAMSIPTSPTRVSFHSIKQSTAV

[2] = molecular target: Corticotropin-releasing factor receptor 2 (Mus musculus) (UniProt Q60748); test: In vitro agonistic activity against mouse corticotropin releasing factor 2 receptor; type: functional
[3] = molecular target: T2, Corticotropin-releasing factor receptor 1 (Mus musculus) (UniProt P35347); test: In vitro agonistic activity against mouse corticotropin releasing factor 1 receptor; type: functional
T2 sequence (whole entry): T1 sequence (P35347 whole entry)

[4] = molecular target: Corticotropin-releasing factor receptor 2 (Mus musculus, UniProt Q60748); test: In vitro effective concentration for mouse corticotropin releasing factor 2 receptor
Mus musculus = species: Mus musculus; test: Selectivity ratio of EC50s for mouse corticotropin releasing factor receptors 1 and 2

Corticotropin-releasing factor receptor 2, sequence (Q60748 whole entry): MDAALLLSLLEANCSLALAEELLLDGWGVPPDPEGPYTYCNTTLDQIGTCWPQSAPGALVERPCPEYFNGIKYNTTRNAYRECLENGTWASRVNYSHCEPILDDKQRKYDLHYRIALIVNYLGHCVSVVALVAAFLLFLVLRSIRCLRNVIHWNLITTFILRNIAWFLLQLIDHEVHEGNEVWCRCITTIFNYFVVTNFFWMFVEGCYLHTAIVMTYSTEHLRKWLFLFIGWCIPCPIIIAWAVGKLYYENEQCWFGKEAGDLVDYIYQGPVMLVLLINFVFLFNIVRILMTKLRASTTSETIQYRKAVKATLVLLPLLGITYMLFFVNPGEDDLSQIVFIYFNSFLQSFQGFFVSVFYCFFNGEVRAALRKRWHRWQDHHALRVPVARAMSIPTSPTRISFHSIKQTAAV
Corticotropin-releasing factor receptor 2 (Mus musculus), sequence (Q60748 whole entry): as above

Structure (SMILES): CC[C@H](C)[C@H](NC(=O)[C@@H](NC(=O)[C@H](CC(=O)O)NC(=O)[C@H](CC(C)C)NC(=O)[C@H](CC(C)C)NC(=O)[C@H](CC(C)C)NC(=O)[C@H](CCCN=C(N)N)NC(=O)[C@H](CC(N)=O)NC(=O)[C@H](CC(N)=O)NC(=O)[C@H](C)NC(=O)[C@H](C)NC(=O)[C@H](CCC(N)=O)NC(=O)[C@H](CCC(N)=O)NC(=O)[C@H](CCCCN)NC(=O)[C@H](CCC(=O)O)NC(=O)[C@H](CCCCN)NC(=O)[C@H](CCC(=O)O)NC(=O)[C@H](CCC(N)=O)NC(=O)[C@H](CCCCN)NC(=O)[C@H](CCC(=O)O)NC(=O)[C@@H](NC(=O)[C@H](CCC(=O)O)NC(=O)[C@@H](NC(=O)[C@H](CCSC)NC(=O)[C@H](CCCCN)NC(=O)[C@H](CCCN=C(N)N)NC(=O)[C@H](CC(C)C)NC(=O)[C@H](CC(C)C)NC(=O)[C@@H](NC(=O)[C@H](Cc1ccc(O)cc1)NC(=O)[C@@H]1CCCN1C(=O)[C@H](CC(C)C)NC(=O)[C@H](CC(=O)O)NC(=O)[C@@H](NC(=O)[C@H](CO)NC(=O)[C@@H](NC(=O)[C@@H]1CCCN1C(=O)[C@@H]1CCCN1C(=O)CNC(=O)[C@@H]1CCC(=O)N1)[C@@H](C)CC)[C@@H](C)CC)C(C)C)[C@@H](C)CC)[C@@H](C)CC)[C@@H](C)O)C(=O)O
EC50 [1]: 100 nM
Emax [2]: 100%
Emax [3]: 80%
EC50 [4]: 5 nM
Selectivity (Mus musculus): 20

Structure (SMILES): CC[C@H](C)[C@H](NC(=O)[C@@H](NC(=O)[C@H](CC(=O)O)NC(=O)[C@H](CC(C)C)NC(=O)[C@H](CC(C)C)NC(=O)[C@H](CC(C)C)NC(=O)[C@H](CCCN=C(N)N)NC(=O)[C@H](CC(N)=O)NC(=O)[C@H](CC(N)=O)NC(=O)[C@H](C)NC(=O)[C@H](C)NC(=O)[C@H](CCC(N)=O)NC(=O)[C@H](CCC(N)=O)NC(=O)[C@H](CCCCN)NC(=O)[C@H](CCC(=O)O)NC(=O)[C@H](CCCCN)NC(=O)[C@H](CCC(=O)O)NC(=O)[C@H](CCC(N)=O)NC(=O)[C@H](CCCCN)NC(=O)[C@H](CCC(=O)O)NC(=O)[C@@H](NC(=O)[C@H](CCC(=O)O)NC(=O)[C@@H](NC(=O)[C@H](CCSC)NC(=O)[C@H](CCCCN)NC(=O)[C@H](CCCN=C(N)N)NC(=O)[C@H](CC(C)C)NC(=O)[C@H](CC(C)C)NC(=O)[C@H](Cc1ccccc1)NC(=O)[C@@H](NC(=O)[C@@H]1CCCN1C(=O)[C@H](CC(C)C)NC(=O)[C@H](CC(=O)O)NC(=O)[C@@H](NC(=O)[C@H](CO)NC(=O)[C@@H](NC(=O)[C@@H]1CCCN1C(=O)[C@@H]1CCCN1C(=O)CNC(=O)[C@@H]1CCC(=O)N1)[C@@H](C)CC)[C@@H](C)CC)[C@@H](C)CC)[C@@H](C)CC)[C@@H](C)CC)[C@@H](C)O)C(=O)O
EC50 [1]: 756 nM
Emax [2]: 100%
Emax [3]: 83%
EC50 [4]: 12.8 nM
Selectivity (Mus musculus): 59

Structure (SMILES): CC[C@H](C)[C@H](NC(=O)[C@@H](NC(=O)[C@H](CC(=O)O)NC(=O)[C@H](CC(C)C)NC(=O)[C@H](CC(C)C)NC(=O)[C@H](CC(C)C)NC(=O)[C@H](CCCN=C(N)N)NC(=O)[C@H](CC(N)=O)NC(=O)[C@H](CC(N)=O)NC(=O)[C@H](C)NC(=O)[C@H](C)NC(=O)[C@H](CCC(N)=O)NC(=O)[C@H](CCC(N)=O)NC(=O)[C@H](CCCCN)NC(=O)[C@H](CCC(=O)O)NC(=O)[C@H](CCCCN)NC(=O)[C@H](CCC(=O)O)NC(=O)[C@H](CCC(N)=O)NC(=O)[C@H](CCCCN)NC(=O)[C@H](CCC(=O)O)NC(=O)[C@@H](NC(=O)[C@H](CCC(=O)O)NC(=O)[C@@H](NC(=O)[C@H](CCSC)NC(=O)[C@H](CCCCN)NC(=O)[C@H](CCCN=C(N)N)NC(=O)[C@H](CC(C)C)NC(=O)[C@H](CC(C)C)NC(=O)[C@H](CC(C)C)NC(=O)[C@H](CCC(N)=O)NC(=O)[C@@H]1CCCN1C(=O)[C@H](CC(C)C)NC(=O)[C@H](CC(=O)O)NC(=O)[C@@H](NC(=O)[C@H](CO)NC(=O)[C@@H](NC(=O)[C@@H]1CCCN1C(=O)[C@@H]1CCCN1C(=O)CNC(=O)[C@@H]1CCC(=O)N1)[C@@H](C)CC)[C@@H](C)CC)[C@@H](C)CC)[C@@H](C)CC)[C@@H](C)O)C(=O)O
EC50 [1]: 447 nM
Emax [2]: 93%
Emax [3]: 96%
EC50 [4]: 27.6 nM
Selectivity (Mus musculus): 16

Further compounds by falling EC50 [1], results first:

EC50 [1]: 606 nM
Emax [2]: 98%
Emax [3]: 95%
EC50 [4]: 20.2 nM
Selectivity (Mus musculus): 30
Structure (SMILES): CC[C@H](C)[C@H](NC(=O)[C@@H](NC(=O)[C@H](CC(=O)O)NC(=O)[C@H](CC(C)C)NC(=O)[C@H](CC(C)C)NC(=O)[C@H](CC(C)C)NC(=O)[C@H](CCCN=C(N)N)NC(=O)[C@H](CC(N)=O)NC(=O)[C@H](CC(N)=O)NC(=O)[C@H](C)NC(=O)[C@H](C)NC(=O)[C@H](CCC(N)=O)NC(=O)[C@H](CCC(N)=O)NC(=O)[C@H](CCCCN)NC(=O)[C@H](CCC(=O)O)NC(=O)[C@H](CCCCN)NC(=O)[C@H](CCC(=O)O)NC(=O)[C@H](CCC(N)=O)NC(=O)[C@H](CCCCN)NC(=O)[C@H](CCC(=O)O)NC(=O)[C@@H](NC(=O)[C@H](CCC(=O)O)NC(=O)[C@@H](NC(=O)[C@H](CCSC)NC(=O)[C@H](CCCCN)NC(=O)[C@H](CCCN=C(N)N)NC(=O)[C@H](CC(C)C)NC(=O)[C@H](CC(C)C)NC(=O)[C@H](Cc1ccc(O)cc1)NC(=O)[C@H](C)NC(=O)[C@@H]1CCCN1C(=O)[C@H](CC(C)C)NC(=O)[C@H](CC(=O)O)NC(=O)[C@@H](NC(=O)[C@H](CO)NC(=O)[C@@H](NC(=O)[C@@H]1CCCN1C(=O)[C@@H]1CCCN1C(=O)CNC(=O)[C@@H]1CCC(=O)N1)[C@@H](C)CC)[C@@H](C)CC)[C@@H](C)CC)[C@@H](C)CC)[C@@H](C)O)C(=O)O

EC50 [1]: 384 nM
Emax [2]: 100%
Emax [3]: 95%
EC50 [4]: 9.4 nM
Selectivity (Mus musculus): 41
Structure (SMILES): CC[C@H](C)[C@H](NC(=O)[C@@H](NC(=O)[C@H](CC(=O)O)NC(=O)[C@H](CC(C)C)NC(=O)[C@H](CC(C)C)NC(=O)[C@H](CC(C)C)NC(=O)[C@H](CCCN=C(N)N)NC(=O)[C@H](CC(N)=O)NC(=O)[C@H](CC(N)=O)NC(=O)[C@H](C)NC(=O)[C@H](C)NC(=O)[C@H](CCC(N)=O)NC(=O)[C@H](CCC(N)=O)NC(=O)[C@H](CCCCN)NC(=O)[C@H](CCC(=O)O)NC(=O)[C@H](CCCCN)NC(=O)[C@H](CCC(=O)O)NC(=O)[C@H](CCC(N)=O)NC(=O)[C@H](CCCCN)NC(=O)[C@H](CCC(=O)O)NC(=O)[C@@H](NC(=O)[C@H](CCC(=O)O)NC(=O)[C@@H](NC(=O)[C@H](CCSC)NC(=O)[C@H](CCCCN)NC(=O)[C@H](CCCN=C(N)N)NC(=O)[C@H](CC(C)C)NC(=O)[C@H](CC(C)C)NC(=O)[C@H](Cc1ccccc1)NC(=O)[C@H](C)NC(=O)[C@@H]1CCCN1C(=O)[C@H](CC(C)C)NC(=O)[C@H](CC(=O)O)NC(=O)[C@@H](NC(=O)[C@H](CO)NC(=O)[C@@H](NC(=O)[C@@H]1CCCN1C(=O)[C@@H]1CCCN1C(=O)CNC(=O)[C@@H]1CCC(=O)N1)[C@@H](C)CC)[C@@H](C)CC)[C@@H](C)CC)[C@@H](C)CC)[C@@H](C)O)C(=O)O

EC50 [1]: 103 nM
Emax [2]: 88%
Emax [3]: 93%
EC50 [4]: 10 nM
Selectivity (Mus musculus): 10
Structure (SMILES): CC[C@H](C)[C@H](NC(=O)[C@@H](NC(=O)[C@H](CC(=O)O)NC(=O)[C@H](CC(C)C)NC(=O)[C@H](CC(C)C)NC(=O)[C@H](CC(C)C)NC(=O)[C@H](CCCN=C(N)N)NC(=O)[C@H](CC(N)=O)NC(=O)[C@H](CC(N)=O)NC(=O)[C@H](C)NC(=O)[C@H](C)NC(=O)[C@H](CCC(N)=O)NC(=O)[C@H](CCC(N)=O)NC(=O)[C@H](CCCCN)NC(=O)[C@H](CCC(=O)O)NC(=O)[C@H](CCCCN)NC(=O)[C@H](CCC(=O)O)NC(=O)[C@H](CCC(N)=O)NC(=O)[C@H](CCCCN)NC(=O)[C@H](CCC(=O)O)NC(=O)[C@@H](NC(=O)[C@H](CCC(=O)O)NC(=O)[C@@H](NC(=O)[C@H](CCSC)NC(=O)[C@H](CCCCN)NC(=O)[C@H](CCCN=C(N)N)NC(=O)[C@H](CC(C)C)NC(=O)[C@H](CC(C)C)NC(=O)[C@H](Cc1ccccc1)NC(=O)[C@H](CC(C)C)NC(=O)[C@@H]1CCCN1C(=O)[C@H](CC(C)C)NC(=O)[C@H](CC(=O)O)NC(=O)[C@@H](NC(=O)[C@H](CO)NC(=O)[C@@H](NC(=O)[C@@H]1CCCN1C(=O)[C@@H]1CCCN1C(=O)CNC(=O)[C@@H]1CCC(=O)N1)[C@@H](C)CC)[C@@H](C)CC)[C@@H](C)CC)[C@@H](C)CC)[C@@H](C)O)C(=O)O

EC50 [1]: 48.1 nM
Emax [2]: 92%
Emax [3]: 81%
EC50 [4]: 3 nM
Selectivity (Mus musculus): 16
Structure (SMILES): CC[C@H](C)[C@H](NC(=O)[C@@H](NC(=O)[C@H](CC(=O)O)NC(=O)[C@H](CC(C)C)NC(=O)[C@H](CC(C)C)NC(=O)[C@H](CC(C)C)NC(=O)[C@H](CCCN=C(N)N)NC(=O)[C@H](CC(N)=O)NC(=O)[C@H](CC(N)=O)NC(=O)[C@H](C)NC(=O)[C@H](C)NC(=O)[C@H](CCC(N)=O)NC(=O)[C@H](CCC(N)=O)NC(=O)[C@H](CCCCN)NC(=O)[C@H](CCC(=O)O)NC(=O)[C@H](CCCCN)NC(=O)[C@H](CCC(=O)O)NC(=O)[C@H](CCC(N)=O)NC(=O)[C@H](CCCCN)NC(=O)[C@H](CCC(=O)O)NC(=O)[C@@H](NC(=O)[C@H](CCC(=O)O)NC(=O)[C@@H](NC(=O)[C@H](CCSC)NC(=O)[C@H](CCCCN)NC(=O)[C@H](CCCN=C(N)N)NC(=O)[C@H](CC(C)C)NC(=O)[C@H](CC(C)C)NC(=O)[C@H](Cc1ccccc1)NC(=O)[C@H](Cc1ccccc1)NC(=O)[C@@H]1CCCN1C(=O)[C@H](CC(C)C)NC(=O)[C@H](CC(=O)O)NC(=O)[C@@H](NC(=O)[C@H](CO)NC(=O)[C@@H](NC(=O)[C@@H]1CCCN1C(=O)[C@@H]1CCCN1C(=O)CNC(=O)[C@@H]1CCC(=O)N1)[C@@H](C)CC)[C@@H](C)CC)[C@@H](C)CC)[C@@H](C)CC)[C@@H](C)O)C(=O)O

From ChEMBL document CHEMBL1139487, “Discovery of corticotropin releasing factor 2 receptor selective sauvagine analogues for treatment of skeletal muscle atrophy” (J Med Chem, 2005)
